These results are taken from US9320276B2, “N-hetarylmethyl pyrazolylcarboxamides” (BAYER INTELLECTUAL PROPERTY GMBH, priority 2010, dated 2016).

Series [1] in a line: logP by HPLC on reversed-phase column (EEC Directive 79/831 Annex V.A8). As to conditions: HPLC on reversed-phase column (C 18), 40° C., 0.1% aqueous formic acid and acetonitrile, linear gradient 10% to 90% acetonitrile. Type of series: physicochemical. On the procedure: In table 1, the logP values were determined in accordance with EEC Directive 79/831 Annex V.A8 by HPLC (High Performance Liquid Chromatography) on a reversed-phase column (C 18), using the method described below: Temperature: 40° C.; Mobile phases: 0.1% aqueous formic acid and acetonitrile; linear gradient from 10% acetonitrile to 90% acetonitrile. Calibration was carried out using unbranched alkan-2-ones (comprising 3 to 16 carbon atoms) with known logP values (determination of the logP values by the retention times using linear interpolation between two successive alkanones). lambda-max-values were determined using UV-spectra from 200 nm to 400 nm and the peak values of the chromatographic signals.

Another series deals with Pyrenophora teres. Nature of the series: in vivo preventive test on Pyrenophora teres (barley). The conditions noted are these: 500 ppm of active ingredient, evaluated 7-9 days after inoculation. Here is the method:
Solvent: 49 parts by weight of N,N-dimethylformamide Emulsifier: 1 part by weight of alkylaryl polyglycol ether To produce a suitable preparation of active compound, 1 part by weight of active compound is mixed with the stated amounts of solvent and emulsifier, and the concentrate is diluted with water to the desired concentration. To test for preventive activity, young plants are sprayed with the preparation of active compound at the stated rate of application. One day after this treatment, the plants are inoculated with an aqueous spore suspension of Pyrenophora teres. The plants remain for 48 hours in an incubation cabinet at 22° C. and a relative atmospheric humidity of 100%. Then the plants are placed in a greenhouse at a temperature of approximately 20° C. and a relative atmospheric humidity of approximately 80%. The test is evaluated 7-9 days after the inoculation. 0% means an efficacy which corresponds to that of the untreated control while an efficacy of 100% means that no disease is observed.

A word on the logP: it is the decadic logarithm of the partition coefficient of the neutral form, usually between octanol and water.

In series [1], `Cn1nc(C(F)F)c(C(=O)N(Cc2cccnc2)C2CCCCCC2)c1Cl` [Example 15] showed a logP of 1.76. In addition, in the series with Pyrenophora teres, the Efficacy was determined as 75%. The corresponding values for `Cc1ccoc1CN(C)C(=O)c1c(C(F)F)nn(C)c1Cl` [Example 21] are 2.32 and 80%. For `Cc1occc1C1(NC(=O)c2c(C(F)F)nn(C)c2Cl)CCCC1` [Example 23], in series [1], the logP is 3.11. Besides, the Efficacy in the series with Pyrenophora teres is recorded as 100%. Taken in the same sequence, the figures for `Cn1nc(C(F)F)c(C(=O)N(Cc2cccs2)C2CC2)c1Cl` [Example 31] were 2.73 and 100%. The corresponding values for `Cc1cc(C(C)N(C(=O)c2c(C(F)F)nn(C)c2F)C2CC2)c(C)o1` (stereo not drawn) [Example 35] are 3.21 and 100%. Take `CCn1cc(CNC(=O)c2c(C(F)F)nn(C)c2F)c(C)n1` [Example 47]: the logP in series [1] worked out at 1.31. The molecule `CN(Cc1cccnc1Cl)C(=O)c1c(C(F)F)nn(C)c1Cl` [Example 51] had a logP in series [1] of 1.87. The same measure, in the same setting: in the case of `CN(Cc1cccnc1Cl)C(=O)c1c(C(F)F)nn(C)c1F` [Example 52] it was 1.72. The same measure, in the same setting: under `CN(Cc1ccnc(Cl)c1)C(=O)c1c(C(F)F)nn(C)c1Cl` [Example 53] stands 1.91; under `CN(Cc1ccnc(Cl)c1)C(=O)c1c(C(F)F)nn(C)c1F` [Example 54], 1.76. The same measure, in the same setting: under `CN(Cc1cncc(Cl)c1)C(=O)c1c(C(F)F)nn(C)c1Cl` [Example 55] stands 1.90. In series [1], `CN(Cc1cncc(Cl)c1)C(=O)c1c(C(F)F)nn(C)c1F` [Example 56] displayed a logP of 1.76. On the same count and under the same terms, in the case of `Cn1nc(C(F)F)c(C(=O)N(Cc2ccc(Cl)nc2)C2CCCC2)c1F` [Example 57] it was 2.80; in that of `COCCN(Cc1ccc(Cl)nc1)C(=O)c1c(C(F)F)nn(C)c1Cl` [Example 58], 2.15. The same measure, in the same setting: under `COCCN(Cc1ccc(Cl)nc1)C(=O)c1c(C(F)F)nn(C)c1F` [Example 59] stands 2.02; under `CCN(Cc1ccc(Cl)nc1)C(=O)c1c(C(F)F)nn(C)c1Cl` [Example 60], 2.23. `CCN(Cc1ccc(Cl)nc1)C(=O)c1c(C(F)F)nn(C)c1F` [Example 61] yielded a logP in series [1] of 2.10. As to `CN(Cc1ccc(Cl)nc1)C(=O)c1c(C(F)F)nn(C)c1Cl` [Example 62], the logP in series [1] turned out to be 1.98. Same read-out and setting: in the case of `CN(Cc1ccc(Cl)nc1)C(=O)c1c(C(F)F)nn(C)c1F` [Example 63] it was 1.84; in that of `CC(C)N(Cc1ccc(Cl)nc1)C(=O)c1c(C(F)F)nn(C)c1Cl` [Example 64], 2.49; in that of `CC(C)N(Cc1ccc(Cl)nc1)C(=O)c1c(C(F)F)nn(C)c1F` [Example 65], 2.33.

Consider `Cn1nc(C(F)F)c(C(=O)N(Cc2ccc(Cl)nc2)C2CC2)c1Cl` [Example 66], for which the logP in series [1] is listed as 2.39.

Regarding `Cn1nc(C(F)F)c(C(=O)N(Cc2ccc(Cl)nc2)C2CCCC2)c1Cl` [Example 68], the logP in series [1] is on record as 2.94.

Regarding `Cn1nc(C(F)F)c(C(=O)NCc2ccc(Cl)nc2)c1Cl` [Example 69], in series [1], the logP stood at 1.82. Consider `Cn1nc(C(F)F)c(C(=O)N(Cc2cc3ccccc3o2)C2CC2)c1Cl` [Example 72], for which, in series [1], the logP is listed as 3.21. This molecule displayed an Efficacy in the series with Pyrenophora teres of 90%. For the molecule `Cn1nc(C(F)F)c(C(=O)NC2(c3cc4ccccc4o3)CCCC2)c1Cl` [Example 74], the logP in series [1] was determined as 3.70. As for `CCN(Cc1cnc(Cl)s1)C(=O)c1c(C(F)F)nn(C)c1F` [Example 76], in series [1], the logP turned out to be 2.21.

The molecule `CCN(Cc1cnc(Cl)s1)C(=O)c1c(C(F)F)nn(C)c1Cl` [Example 77] registered a logP in series [1] of 2.35. In series [1], `CCN(Cc1c(C)nn(CC)c1C)C(=O)c1c(C(F)F)nn(C)c1Cl` [Example 78] returned a lipophilicity (logP) of 1.82. `CCN(Cc1c(C)nn(CC)c1C)C(=O)c1c(C(F)F)nn(C)c1F` [Example 79] registered a logP in series [1] of 1.72. The same measure, in the same setting: in the case of `Cn1nc(C(F)F)c(C(=O)NCc2cc3ccccc3s2)c1F` [Example 84] it was 2.75; in that of `Cn1nc(C(F)F)c(C(=O)NCc2csc3ccccc23)c1Cl` [Example 87], 2.90. Molecule `CC(c1cccc2ccsc12)N(C(=O)c1c(C(F)F)nn(C)c1Cl)C1CC1` (stereo not drawn) [Example 92] returned a logP in series [1] of 3.61. In the series with Pyrenophora teres, this molecule registered an Efficacy of 100%. With `Cn1nc(C(F)F)c(C(=O)N(Cc2nc3ccccc3s2)C2CC2)c1Cl` [Example 97], in series [1], the logP came out at 2.80.

In series [1], `CN(Cc1ccc2nsnc2c1)C(=O)c1c(C(F)F)nn(C)c1Cl` [Example 99] displayed a logP of 2.32. Same read-out and setting: in the case of `CC(C)Oc1ccc(CN(C)C(=O)c2c(C(F)F)nn(C)c2Cl)cn1` [Example 101] it was 2.59.

Turning to `CC(C)Oc1ccc(CN(C)C(=O)c2c(C(F)F)nn(C)c2F)cn1` [Example 102], the logP in series [1] was 2.45. For the same molecule, in the series with Pyrenophora teres, the Efficacy is 70%. Taken in the same sequence, the figures for `Cn1nc(C(F)F)c(C(=O)N(Cc2cc(CC(C)(C)C)no2)C2CC2)c1Cl` [Example 107] were 3.31 and 80%. On to `CN(Cc1cc(-c2ccccc2)no1)C(=O)c1c(C(F)F)nn(C)c1F` [Example 110], for which the logP in series [1] was found to be 2.51. This molecule came in with an Efficacy with Pyrenophora teres of 100%. Taken in the same sequence, the figures for `Cn1nc(C(F)F)c(C(=O)N(Cc2cc(-c3ccccc3)no2)C2CC2)c1Cl` [Example 112] were 3.04 and 95%.

Consider `CN(Cc1nc(-c2ccccc2)no1)C(=O)c1c(C(F)F)nn(C)c1Cl` [Example 113], for which, in series [1], the logP is 2.71. In series [1], `Cn1nc(C(F)F)c(C(=O)N(Cc2cnc(Cl)cc2Cl)C2CC2)c1Cl` [Example 119] registered a logP of 2.90. The molecule `Cc1c(CN(C(=O)c2c(C(F)F)nn(C)c2Cl)C2CC2)sc2ccccc12` [Example 123] registered a logP in series [1] of 3.74. In the series with Pyrenophora teres, this molecule came in with an Efficacy of 90%. `Cc1onc(-c2ccccc2)c1CN(C)C(=O)c1c(C(F)F)nn(C)c1Cl` [Example 129] came in with a logP in series [1] of 2.59. Still for that read-out and setting: under `Cc1onc(-c2ccccc2)c1CN(C)C(=O)c1c(C(F)F)nn(C)c1F` [Example 130] stands 2.44; under `CN(Cc1cscc1Br)C(=O)c1c(C(F)F)nn(C)c1Cl` [Example 134], 2.70; under `Cn1nc(C(F)F)c(C(=O)N(Cc2sccc2Br)C2CC2)c1F` [Example 135], 3.11.

For the molecule `Cn1nc(C(F)F)c(C(=O)N(Cc2sccc2Br)C2CC2)c1Cl` [Example 136], the logP in series [1] was determined as 3.29. `Cn1nc(C(F)F)c(C(=O)N(Cc2cc(Cl)nc3ccccc23)C2CC2)c1F` [Example 138] came in with a logP in series [1] of 2.92. This molecule came in with an Efficacy with Pyrenophora teres of 100%. The corresponding values for `Cn1nc(C(F)F)c(C(=O)N(Cc2cc(Cl)nc3ccccc23)C2CC2)c1Cl` [Example 139] are 3.09 and 90%. In the case of `CN(Cc1sc2ccccc2c1Cl)C(=O)c1c(C(F)F)nn(C)c1Cl` [Example 141], the logP in series [1] amounted to 3.63. In the case of `Cn1nc(C(F)F)c(C(=O)N(Cc2csc3ccc(Cl)cc23)C2CC2)c1Cl` [Example 144], the logP in series [1] worked out at 3.83. In the series with Pyrenophora teres, the Efficacy stood at 100%. Turning to `Cc1cc(CN(C(=O)c2c(C(F)F)nn(C)c2Cl)C2CC2)c(C)n1-c1ccccc1` [Example 146], the lipophilicity (logP) in series [1] was found to be 3.94.

`Cc1nc(-c2ccccc2)sc1CN(C)C(=O)c1c(C(F)F)nn(C)c1Cl` [Example 148] returned a logP in series [1] of 2.90. For the molecule `CC(C)N(Cc1cnn(-c2ccc(Cl)cc2)c1)C(=O)c1c(C(F)F)nn(C)c1F` [Example 150], in series [1], the logP is 3.25. The molecule `CC(C)N(Cc1cnn(-c2ccc(Cl)cc2)c1)C(=O)c1c(C(F)F)nn(C)c1Cl` [Example 151] gave a logP in series [1] of 3.39. The Efficacy with Pyrenophora teres turned out to be 75%.

As to `CN(Cc1cc(-c2ccc(Cl)cc2)no1)C(=O)c1c(C(F)F)nn(C)c1F` [Example 152], in series [1], the logP turned out to be 3.04. In series [1], `Cn1nc(C(F)F)c(C(=O)N(Cc2cc(-c3ccc(Cl)cc3)no2)C2CC2)c1Cl` [Example 154] gave a logP of 3.59. The Efficacy with Pyrenophora teres amounted to 100%.

`Cn1nc(C(F)F)c(C(=O)N(Cc2cc3ccccc3n2-c2ccccc2)C2CC2)c1Cl` [Example 156]: the logP in series [1] turned out to be 4.13. In the series on Pyrenophora teres, this molecule returned an Efficacy of 90%. Molecule `CSc1ncc(C(C(C)C)N(C)C(=O)c2c(C(F)F)nn(C)c2Cl)c(C(F)(F)F)n1` (stereo not drawn) [Example 158] had a logP in series [1] of 3.59. For the molecule `Cn1nc(C(F)F)c(C(=O)N(Cc2cc(C(F)(F)F)nc3ccccc23)C2CC2)c1F` [Example 159], in series [1], the logP was found to be 3.58. In the series on Pyrenophora teres, this molecule gave an Efficacy of 100%. In series [1], `Cn1nc(C(F)F)c(C(=O)N(Cc2cc(C(F)(F)F)nc3ccccc23)C2CC2)c1Cl` [Example 160] showed a logP of 3.72. In the series on Pyrenophora teres, this molecule gave an Efficacy of 90%.

Consider `Cn1nc(C(F)F)c(C(=O)N(Cc2ccnc3cc(Cl)cc(Cl)c23)C2CC2)c1Cl` [Example 162], for which the logP in series [1] came out at 3.57. The Efficacy with Pyrenophora teres came to 94%.
